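Assay format: 96-well plates, 48-hour exposure. TGI: total growth inhibition.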

Among the test systems are HOP-62 NSCLC; UO-31 renal; OVCAR-4 ovarian; SR leukemia; HS 578T breast; MDA-MB-435; M14 melanoma; NCI/ADR-RES ovarian; TK-10 renal; PC-3 prostate; U251 CNS.
Holding throughout (test): NCI anticancer screen, dose series, 48 h

For the molecule `O=C(Cn1c(C(=O)c2ccccc2)nc2ccccc21)c1ccccc1`, the TGI in the experiment with HOP-62 NSCLC, with UO-31 renal, in the experiment with OVCAR-4 ovarian, in the experiment with SR leukemia, in the experiment with HS 578T breast and in the experiment on MDA-MB-435 was over 100 µM throughout. The TGI in the experiment with M14 melanoma, in the experiment on NCI/ADR-RES ovarian, in the experiment with TK-10 renal, in the experiment on PC-3 prostate and in the experiment on U251 CNS was over 100 µM in each case.

As to `COC1(CC[C@@H](C)COC2OC(CO)C(O)C(O)C2O)O[C@H]2C[C@H]3[C@@H]4CC=C5C[C@@H](OC6OC(CO)C(O)C(OC7OC(CO)C(O)C(O)C7O)C6OC6OC(C)C(O)C(O)C6O)CC[C@]5(C)[C@H]4CC[C@]3(C)[C@H]2[C@@H]1C` (some centres not stated), the TGI in the experiment on HOP-62 NSCLC was 24.3 µM; in the experiment with UO-31 renal it was 9.53 µM; in the experiment with OVCAR-4 ovarian, 28.4 µM; in the experiment on SR leukemia, over 100 µM; in the experiment with HS 578T breast it was 22.2 µM; in the experiment with MDA-MB-435 it was 8.52 µM. Also, the TGI in the experiment with M14 melanoma is 5.41 µM; with NCI/ADR-RES ovarian, 33.6 µM; in the experiment with TK-10 renal, 43.8 µM; with PC-3 prostate it was 21.4 µM; in the experiment with U251 CNS it was 4.13 µM.

For the molecule `C/C(=C/CC[C@]1(CO)CC[C@]2(C)[C@H](CC[C@@H]3[C@@]4(C)CC[C@H](OC5OC(CO)C(O)C(O)C5OC5OC(CO)C(O)C(O)C5O)C(C)(C)[C@@H]4CC[C@]32C)[C@H]1O)CO` (some centres not stated), the TGI in the experiment on HOP-62 NSCLC, in the experiment with UO-31 renal, in the experiment on OVCAR-4 ovarian, in the experiment with SR leukemia, in the experiment on HS 578T breast and in the experiment with MDA-MB-435 was over 100 µM throughout. For the same molecule, the TGI in the experiment with M14 melanoma, in the experiment on NCI/ADR-RES ovarian, in the experiment with TK-10 renal, in the experiment with PC-3 prostate and in the experiment on U251 CNS was over 100 µM in each case.

With `CC1(C)COC2=C(C1)C(=O)c1ccccc1C2=O`, the TGI in the experiment with HOP-62 NSCLC was found to be 3.45 µM; with UO-31 renal, 2.21 µM; with OVCAR-4 ovarian, 2.9 µM; in the experiment with SR leukemia, 8.37 µM; in the experiment on HS 578T breast, 7.95 µM; in the experiment with MDA-MB-435, 0.338 µM. The TGI in the experiment with M14 melanoma came to 2.96 µM; in the experiment with NCI/ADR-RES ovarian it was 1.94 µM; with TK-10 renal, 3.19 µM; in the experiment on PC-3 prostate, 3.58 µM; with U251 CNS, 2.78 µM.

Regarding `C(#CP(c1ccccc1)c1ccccc1)P(C#CP(c1ccccc1)c1ccccc1)c1ccccc1`, the TGI in the experiment with HOP-62 NSCLC, in the experiment on UO-31 renal, with OVCAR-4 ovarian, in the experiment on SR leukemia, with HS 578T breast and in the experiment with MDA-MB-435 was over 100 µM throughout. Moreover, the TGI with M14 melanoma is 13 µM; in the experiment with NCI/ADR-RES ovarian, over 100 µM; with TK-10 renal, over 100 µM; with PC-3 prostate, over 100 µM; in the experiment with U251 CNS, over 100 µM.

In the case of `O=C(SCc1cccc2ccccc12)c1ccc(Cl)cc1`, the TGI in the experiment on HOP-62 NSCLC, in the experiment with UO-31 renal, in the experiment with OVCAR-4 ovarian, with SR leukemia, in the experiment with HS 578T breast and in the experiment with MDA-MB-435 was over 100 µM in each case. For the same molecule, the TGI in the experiment with M14 melanoma, with NCI/ADR-RES ovarian, in the experiment on TK-10 renal, in the experiment with PC-3 prostate and with U251 CNS was over 100 µM throughout.

`O=C1CSC(c2ccc(Cl)cc2Cl)N1c1ccc(Oc2ccc(Cl)cc2)c(Cl)c1` (configuration not stated): the TGI in the experiment with HOP-62 NSCLC is 59.8 µM; in the experiment with UO-31 renal it was 32.6 µM; with OVCAR-4 ovarian, 78.6 µM; in the experiment with SR leukemia, 42.8 µM; in the experiment on HS 578T breast it was 41.9 µM; with MDA-MB-435 it was 26.3 µM. In addition, the TGI is over 100 µM in the experiment with M14 melanoma; 55.1 µM in the experiment on NCI/ADR-RES ovarian; over 100 µM with TK-10 renal; over 100 µM in the experiment with PC-3 prostate; over 100 µM in the experiment with U251 CNS.

For the molecule `C/C(=N\O)c1cccc[n+]1Cc1ccccc1`, the TGI in the experiment on HOP-62 NSCLC, in the experiment with UO-31 renal, with OVCAR-4 ovarian, in the experiment with SR leukemia, with HS 578T breast and in the experiment on MDA-MB-435 was over 100 µM in each case. Besides, the TGI with M14 melanoma, in the experiment with NCI/ADR-RES ovarian, with TK-10 renal, in the experiment with PC-3 prostate and in the experiment on U251 CNS was over 100 µM each time.

Turning to `C(=Nc1ccc(-c2nc3ccccc3s2)cc1)c1ccc[nH]1`, the TGI in the experiment with HOP-62 NSCLC is 27.6 µM; in the experiment with UO-31 renal, 53.5 µM; in the experiment with OVCAR-4 ovarian it was 89.7 µM; with SR leukemia, 49.5 µM; in the experiment on HS 578T breast, 53.4 µM; in the experiment on MDA-MB-435 it was 41 µM. Besides, the TGI turned out to be 34.2 µM in the experiment with M14 melanoma; 44.6 µM with NCI/ADR-RES ovarian; 64.2 µM in the experiment on TK-10 renal; 31.5 µM with PC-3 prostate; 27.7 µM in the experiment on U251 CNS.

On to `O=C(O)/C=C/c1ccc2c(c1)CC1(Cc3ccccc3C1)C2`, for which the TGI in the experiment with HOP-62 NSCLC was over 100 µM; with UO-31 renal it was over 100 µM; with OVCAR-4 ovarian, over 100 µM; in the experiment with SR leukemia, 62.3 µM; in the experiment on HS 578T breast it was over 100 µM; in the experiment with MDA-MB-435, over 100 µM. The TGI with M14 melanoma, in the experiment with NCI/ADR-RES ovarian, with TK-10 renal, with PC-3 prostate and in the experiment with U251 CNS was over 100 µM in each case.

Consider `Cc1cc2nc3c(C#N)c4c(c(-c5ccc(Cl)cc5)n3c2cc1C)CCC4`, for which the TGI in the experiment with HOP-62 NSCLC came to 46.2 µM; in the experiment with UO-31 renal it was 39.4 µM; with OVCAR-4 ovarian, 97.1 µM; in the experiment with SR leukemia, 45.7 µM; in the experiment on HS 578T breast it was 47.9 µM; with MDA-MB-435, 54.8 µM. Moreover, the TGI in the experiment with M14 melanoma was 32.7 µM; in the experiment on NCI/ADR-RES ovarian, over 100 µM; in the experiment with TK-10 renal, 60.5 µM; in the experiment on PC-3 prostate it was 97.7 µM; with U251 CNS, 78.4 µM.

As for `CC1=CP(=O)(c2c(C(C)C)cc(C(C)C)cc2C(C)C)CCC1Cl` (configuration not stated), the TGI was 33.9 µM in the experiment with HOP-62 NSCLC; 29.2 µM with UO-31 renal; 48.5 µM in the experiment with OVCAR-4 ovarian; 23 µM with SR leukemia; over 100 µM in the experiment on HS 578T breast; 37.6 µM in the experiment on MDA-MB-435. Further, the TGI in the experiment with M14 melanoma amounted to 29.8 µM; in the experiment with NCI/ADR-RES ovarian, 40.2 µM; in the experiment on TK-10 renal it was 30.7 µM; in the experiment on PC-3 prostate, 28 µM; in the experiment on U251 CNS it was 32.3 µM.

For the origin of these results see PubChem BioAssay (NCI).
